Read-outs that look alike come from different tables or passages of the source.
How the values were obtained:
[1] = target: T1, West Nile Virus (WNV) NS2B-NS3 protease (West Nile virus, UniProt Q9Q6P4); assay: WNV protease inhibition assay; assay type: biochemical; conditions: Table 4; letter codes for IC50
T1 construct: NS2B1423-1470); purchased R&D 2907-SE-020
Text: WNV protease inhibition assay

[2] = tested on: ZIKV replicon; assay: ZIKV replication inhibition assay (NanoLuc replicon in Vero cells); conditions: 72 h
[3] = Zika virus, Vero, read-out: ZIKA Cell_Nanoluc
[4] = Zika virus, Vero, read-out: ZIKA Cell_Nanoluc, Vero cells with stable ZIKV replicon, 72 h, Nano-Glo readout

T1 sequence (Q9Q6P4 1423-1470): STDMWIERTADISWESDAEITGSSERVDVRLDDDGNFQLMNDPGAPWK
T1 sequence (Q9Q6P4 1506-1689): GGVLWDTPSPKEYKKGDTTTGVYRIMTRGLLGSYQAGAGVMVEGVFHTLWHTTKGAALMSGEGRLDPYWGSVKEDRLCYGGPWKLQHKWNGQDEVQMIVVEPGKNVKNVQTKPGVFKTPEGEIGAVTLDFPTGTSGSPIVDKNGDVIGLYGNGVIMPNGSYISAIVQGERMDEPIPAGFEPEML

For CN(C)C[C@H]1CC[C@H]([n+]2cc([N-]C(=O)Nc3cc(N(C)C(=O)Cc4ccccc4)cc(C(F)(F)F)c3)on2)CC1 [Example 172, (3-((1R,4R)-4-((Dimethylamino)methyl)-cyclohexyl)-1,2,3-oxadiazol-3-ium-5-yl)((3-(N-methyl-2-phenylacetamido)-5-(trifluoromethyl)-phenyl)carbamoyl)amide], the IC50 [1] was 0.1 to 1 µM and the EC50 [2, 3] was 1 to 20 µM.
In the case of CN(C)C[C@H]1CC[C@H]([n+]2cc([N-]C(=O)Nc3cc(N4CCC(c5ccccc5)C4=O)cc(C(F)(F)F)c3)on2)CC1 (stereo partly drawn) [Example 148, (3-((1R,4R)-4-((Dimethylamino)methyl)-cyclohexyl)-1,2,3-oxadiazol-3-ium-5-yl)((3-(2-oxo-3-phenylpyrrolidin-1-yl)-5-(trifluoromethyl)-phenyl)carbamoyl)amide], the IC50 [1] is reported as 0.1 to 1 µM and the EC50 [2, 3] is reported as 1 to 20 µM.
CN(C)C[C@H]1CC[C@H]([n+]2cc([N-]C(=O)Nc3cc(NC(=O)Cc4ccccc4Cl)nc(C(F)(F)F)c3)on2)CC1 [Example 193, ((2-(2-(2-Chlorophenyl)acetamido)-6-(trifluoromethyl)pyridin-4-yl)carbamoyl)(3-((1R,4R)-4-((dimethylamino)methyl)-cyclohexyl)-1,2,3-oxadiazol-3-ium-5-yl)amide] was tested, and the IC50 [1] was 1 to 20 µM and the EC50 [2, 3] was 0.1 to 1 µM.
Work on Cc1ccccc1CC(=O)Nc1cc(NC(=O)[N-]c2c[n+]([C@@H]3CCCC[C@@H]3N(C)C)no2)cc(C(F)(F)F)c1 (racemic) [Example 244, rac-(3-((1R,2S)-2-(Dimethylamino)cyclohexyl)-1,2,3-oxadiazol-3-ium-5-yl)((3-(2-(o-tolyl)acetamido)-5-(trifluoromethyl)phenyl)-carbamoyl)amide] yielded an IC50 [1] of 0.1 to 1 µM and an EC50 [2, 4] of 1 to 20 µM.
In the case of Cc1noc(C)c1CC(=O)Nc1cc(NC(=O)[N-]c2c[n+]([C@H]3CC[C@H](CN(C)C)CC3)no2)cc(C(F)(F)F)c1 [Example 197, (3-((1R,4R)-4-((Dimethylamino)methyl)-cyclohexyl)-1,2,3-oxadiazol-3-ium-5-yl)((3-(2-(3,5-dimethylisoxazol-4-yl)acetamido)-5-(trifluoromethyl)phenyl)carbamoyl)amide], the IC50 [1] is reported as 1 to 20 µM and the EC50 [2, 3] is reported as less than 0.1 µM.
With Cc1ncccc1-c1ccc(C[n+]2cc([N-]C(=O)Nc3ccnc(C(F)(F)F)c3)on2)cc1 [Example 258, (3-(4-(2-Methylpyridin-3-yl)benzyl)-1,2,3-oxadiazol-3-ium-5-yl)((2-(trifluoromethyl)pyridin-4-yl)carbamoyl)amide] the IC50 [1] was less than 0.1 µM and the EC50 [2, 4] was less than 0.1 µM.
Cc1ccccc1CC(=O)Nc1cc(NC(=O)[N-]c2c[n+]([C@H]3CCC[C@@H](c4cncnc4)C3)no2)cc(C(F)(F)F)c1 [Example 222, (3-((1S,3R)-3-(Pyrimidin-5-yl)cyclohexyl)-1,2,3-oxadiazol-3-ium-5-yl)((3-(2-(o-tolyl)acetamido)-5-(trifluoromethyl)phenyl)-carbamoyl)amide] gave an IC50 [1] of less than 0.1 µM and an EC50 [2, 4] of 0.1 to 1 µM.
In the case of Cc1ccccc1CC(=O)Nc1cc(NC(=O)[N-]c2c[n+]([C@@H]3CCCC[C@H]3O)no2)cc(C(F)(F)F)c1 [Example 203, (3-((1R,2R)-2-Hydroxycyclohexyl)-1,2,3-oxadiazol-3-ium-5-yl)((3-(2-(o-tolyl)acetamido)-5-(trifluoromethyl)phenyl)carbamoyl)amide], the IC50 [1] is reported as 0.1 to 1 µM and the EC50 [2, 4] is reported as 0.1 to 1 µM.
In the case of O=C([N-]c1c[n+](Cc2ccc(-c3cncnc3)cc2)no1)Nc1ccnc(C(F)(F)F)c1 [Example 236, (3-(4-(Pyrimidin-5-yl)benzyl)-1,2,3-oxadiazol-3-ium-5-yl)((2-(trifluoromethyl)pyridin-4-yl)-carbamoyl)amide], the IC50 [1] is reported as 0.1 to 1 µM and the EC50 [2, 4] is reported as 0.1 to 1 µM.
Molecule Cc1nnccc1-c1ccc(C[n+]2cc([N-]C(=O)Nc3ccnc(C(F)(F)F)c3)on2)cc1 [Example 188, (3-(4-(3-Methylpyridazin-4-yl)benzyl)-1,2,3-oxadiazol-3-ium-5-yl)((2-(trifluoromethyl)-pyridin-4-yl)carbamoyl)amide] has an IC50 [1] of less than 0.1 µM and an EC50 [2, 4] of less than 0.1 µM.
Work on Cc1ccccc1CC(=O)Nc1cc(NC(=O)[N-]c2c[n+]([C@H]3CC[C@H](C(=O)N4CCCC4)CC3)no2)cc(C(F)(F)F)c1 [Example 254, (3-((1R,4R)-4-(Pyrrolidine-1-carbonyl)-cyclohexyl)-1,2,3-oxadiazol-3-ium-5-yl)((3-(2-(o-tolyl)acetamido)-5-(trifluoromethyl)phenyl)-carbamoyl)amide] yielded an IC50 [1] of less than 0.1 µM and an EC50 [2, 3] of 1 to 20 µM.
CN(C)C[C@H]1CC[C@H]([n+]2cc([N-]C(=O)Nc3cc(NC(=O)CCc4cn(C)c5ccccc45)cc(C(F)(F)F)c3)on2)CC1 [Example 157, (3-((1R,4R)-4-((Dimethylamino)methyl)-cyclohexyl)-1,2,3-oxadiazol-3-ium-5-yl)((3-(3-(1-methyl-1H-indol-3-yl)propanamido)-5-(trifluoromethyl)phenyl)carbamoyl)amide] showed an IC50 [1] of less than 0.1 µM and an EC50 ([2]; read-out: ZIKA Cell_Nanoluc, Vero cells with stable ZIKV replicon, Nano-Glo readout) of 1 to 20 µM.
For CN(C)C[C@H]1CC[C@H]([n+]2cc([N-]C(=O)Nc3cc(NC(=O)Cc4cn(C)c5ccccc45)cc(C(F)(F)F)c3)on2)CC1 [Example 161, (3-((1R,4R)-4-((dimethylamino)methyl)-cyclohexyl)-1,2,3-oxadiazol-3-ium-5-yl)((3-(2-(1-methyl-1H-indol-3-yl)acetamido)-5-(trifluoromethyl)phenyl)carbamoyl)amide], the IC50 [1] was 0.1 to 1 µM and the EC50 [2, 3] was 1 to 20 µM.
In the case of Cc1ncnc(C)c1-c1ccc(C[n+]2cc([N-]C(=O)N[C@H]3CC[C@H](C(F)(F)F)C3)on2)cc1 [Example 233, (3-(4-(4,6-Dimethylpyrimidin-5-yl)benzyl)-1,2,3-oxadiazol-3-ium-5-yl)(((1S,3S)-3-(trifluoromethyl)cyclopentyl)carbamoyl)amide], the IC50 [1] is reported as 0.1 to 1 µM and the EC50 [2, 4] is reported as 0.1 to 1 µM.
With O=C(Cc1ccccc1)Nc1cc(NC(=O)[N-]c2c[n+](Cc3ccc(Br)cn3)no2)cc(C(F)(F)F)c1 [Example 12, (3-((5-Bromopyridin-2-yl)methyl)-1,2,3-oxadiazol-3-ium-5-yl)((3-(2-phenylacetamido)-5-(trifluoromethyl)phenyl)carbamoyl)amide] the EC50 [2, 4] was 0.1 to 1 µM.
For NC1CC(C[n+]2cc([N-]C(=O)Nc3cc(NC(=O)Cc4ccccc4)cc(C(F)(F)F)c3)on2)C1 (centres unmarked) [Example 118, (3-((3-Aminocyclobutyl)methyl)-1,2,3-oxadiazol-3-ium-5-yl)((3-(2-phenylacetamido)-5-(trifluoromethyl)phenyl)carbamoyl)amide], the EC50 [2, 4] was 1 to 20 µM.
For O=C(Cc1c[nH]c2cccnc12)Nc1cc(NC(=O)[N-]c2c[n+](Cc3ccccn3)no2)cc(C(F)(F)F)c1 [Example 36], the EC50 [2, 3] was 1 to 20 µM.
Nc1ccc(CC(=O)Nc2cc(NC(=O)[N-]c3c[n+](Cc4ccccn4)no3)cc(C(F)(F)F)c2)cn1 [Example 42] was tested, and the EC50 [2, 3] was 1 to 20 µM.
Work on O=C([N-]c1c[n+](Cc2ccccn2)no1)Nc1cc(NC(=O)c2ccn3c2COCC3)cc(C(F)(F)F)c1 [Example 81, ((3-(3,4-Dihydro-1H-pyrrolo[2,1-c][1,4]oxazine-8-carboxamido)-5-(trifluoromethyl)-phenyl)carbamoyl)(3-(pyridin-2-ylmethyl)-1,2,3-oxadiazol-3-ium-5-yl)amide] yielded an EC50 [2, 4] of 1 to 20 µM.
Molecule O=C([N-]c1c[n+](Cc2ccccn2)no1)Nc1cc(NC(=O)c2cnccn2)cc(C(F)(F)F)c1 [Example 45] has an EC50 [2, 3] of 1 to 20 µM.
NCc1ccc(CC(=O)Nc2cc(NC(=O)[N-]c3c[n+](Cc4ccccn4)no3)cc(C(F)(F)F)c2)cc1 [Example 27, ((3-(2-(4-(Aminomethyl)phenyl)acetamido)-5-(trifluoromethyl)phenyl)carbamoyl)(3-(pyridin-2-ylmethyl)-1,2,3-oxadiazol-3-ium-5-yl)amide] showed an EC50 [2, 4] of 1 to 20 µM.
With NCc1ccccc1C[n+]1cc([N-]C(=O)Nc2cc(NC(=O)Cc3ccccc3)cc(C(F)(F)F)c2)on1 [Example 114, (3-(2-(Aminomethyl)benzyl)-1,2,3-oxadiazol-3-ium-5-yl)((3-(2-phenylacetamido)-5-(trifluoromethyl)phenyl)carbamoyl)amide] the EC50 [2, 4] was 1 to 20 µM.
N#Cc1ccn(C2(C(=O)Nc3cc(NC(=O)[N-]c4c[n+](Cc5ccccn5)no4)cc(C(F)(F)F)c3)CC2)n1 [Example 71] showed an EC50 [2, 3] of 1 to 20 µM.
Work on Cc1noc(C)c1-c1ccc([C@H](CN)[n+]2cc([N-]C(=O)Nc3cc(NC(=O)Cc4ccccc4)cc(C(F)(F)F)c3)on2)cc1 [Example 23, (R)-(3-(2-Amino-1-(4-(3,5-dimethylisoxazol-4-yl)phenyl)ethyl)-1,2,3-oxadiazol-3-ium-5-yl)((3-(2-phenylacetamido)-5-(trifluoromethyl)phenyl)-carbamoyl)amide] yielded an EC50 [2, 4] of 1 to 20 µM.
Work on Cc1noc(C)c1-c1ccc([C@@H](CN)[n+]2cc([N-]C(=O)Nc3cc(NC(=O)Cc4ccccc4)cc(C(F)(F)F)c3)on2)cc1 [Example 24, (S)-(3-(2-Amino-1-(4-(3,5-dimethylisoxazol-4-yl)phenyl)ethyl)-1,2,3-oxadiazol-3-ium-5-yl)((3-(2-phenylacetamido)-5-(trifluoromethyl)phenyl)carbamoyl)amide] yielded an EC50 [2, 4] of 1 to 20 µM.
O=C(CC1(N2CCCC2)COC1)Nc1cc(NC(=O)[N-]c2c[n+](Cc3ccccn3)no2)cc(C(F)(F)F)c1 [Example 86, (3-(Pyridin-2-ylmethyl)-1,2,3-oxadiazol-3-ium-5-yl)((3-(2-(3-(pyrrolidin-1-yl)oxetan-3-yl)acetamido)-5-(trifluoromethyl)phenyl)carbamoyl)amide] showed an EC50 [2, 4] of 1 to 20 µM.
COc1ncc(-c2ccc(C[n+]3cc([N-]C(=O)Nc4cc(NC(=O)CCc5ccccc5)cc(C(F)(F)F)c4)on3)cc2)c(C)n1 [Example 9, (3-(4-(2-Methoxy-4-methylpyrimidin-5-yl)benzyl)-1,2,3-oxadiazol-3-ium-5-yl)((3-(3-phenylpropanamido)-5-(trifluoromethyl)phenyl)carbamoyl)amide] gave an EC50 [2, 4] of 0.1 to 1 µM.
